Patent publication US20100267561A1, “HERBICIDAL PYRIDAZINONE DERIVATIVES” (priority 2007, published 2010)

How the values were obtained:
Assay type in all cases: in vivo
[1] = tested on: rice (Oryza sativa); test: Test B flooded paddy test plant response
How it was run: (§1)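 Rice, umbrella sedge, ducksalad and barnyardgrass at 2-leaf stage; pots flooded to 3 cm, compounds applied into paddy water, depth held throughout. Greenhouse 13 to 15 days, then visual rating vs untreated controls on 0–100 scale (0 no effect, 100 complete control); dash means no test result.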

[2] = tested on: umbrella sedge (Cyperus difformis); test: Test B flooded paddy test plant response
How it was run: as §1

[3] = tested on: ducksalad (Heteranthera limosa); test: Test B flooded paddy test plant response
How it was run: as §1

[4] = tested on: barnyardgrass (Echinochloa crus-galli); test: Test B flooded paddy test plant response
How it was run: as §1

[5] = tested on: cocklebur (Xanthium strumarium); test: Test B pre-/postemergence plant response; details: Preemergence
How it was run: (§2)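 Visual scoring from 0 (no effect) to 100 (complete control) against untreated controls was done 13 to 15 days after greenhouse treatment. Chemicals were formulated in a surfactant-containing non-phytotoxic solvent and applied to soil preemergence or to 1- to 4-leaf (2-18 cm) plants postemergence.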

[6] = tested on: large crabgrass (Digitaria sanguinalis); test: Test B pre-/postemergence plant response; details: Preemergence
How it was run: as §2

[7] = tested on: Italian ryegrass (Lolium multiflorum); test: Test B pre-/postemergence plant response; details: Preemergence
How it was run: as §2

[8] = tested on: goosegrass (Eleusine indica); test: Test B pre-/postemergence plant response; details: Preemergence
How it was run: as §2

[9] = tested on: bermudagrass (Cynodon dactylon); test: Test B pre-/postemergence plant response; details: Preemergence
How it was run: as §2

[10] = tested on: lambsquarters (Chenopodium album); test: Test B pre-/postemergence plant response; details: Preemergence
How it was run: as §2

[11] = tested on: velvetleaf (Abutilon theophrasti); test: Test B pre-/postemergence plant response; details: Preemergence; for Velvetleaf plant response rating: scale 0 to 100
How it was run: as §2

[12] = tested on: Russian thistle (Salsola iberica); test: Test B pre-/postemergence plant response; details: Preemergence
How it was run: as §2

[13] = tested on: soybean (Glycine max); test: Test B pre-/postemergence plant response; details: Preemergence
How it was run: as §2

[14] = tested on: common ragweed (Ambrosia elation); test: Test B pre-/postemergence plant response; details: Preemergence
How it was run: as §2

[15] = Flood (flooded paddy test), 62 g ai/ha, scale 0 to 100, 0 no effect, 100 complete control
[16] = Flood (flooded paddy test), 125 g ai/ha, scale 0 to 100, 0 no effect, 100 complete control
[17] = Flood (flooded paddy test), 250 g ai/ha, scale 0 to 100, 0 no effect, 100 complete control
[18] = Flood, 31 g ai/ha, scale 0 to 100
[19] = 31 g ai/ha, 0 to 100 scale, 0 no effect, 100 complete control
[20] = 31 g ai/ha, scale 0 to 100 (0 no effect, 100 complete control)

Cc1cc(-c2ccc(Cl)cc2)nn1-c1c(OS(=O)(=O)c2ccc(Cl)s2)cnn(C)c1=O [Compound 55]
Plant response rating, Rice [1, 15]: 0 | Plant response rating, Rice [1, 16]: 0 | Plant response rating, Rice [1, 17]: 30 | Plant response rating, Rice [1, 18]: 0 | Plant response rating, Sedge, Umbrella [2, 15]: 70 | Plant response rating, Sedge, Umbrella [2, 16]: 75 | Plant response rating, Sedge, Umbrella [2, 17]: 80 | Plant response rating, Sedge, Umbrella [2, 18]: 45 | Plant response rating, Ducksalad [3, 15]: 0 | Plant response rating, Ducksalad [3, 16]: 0 | Plant response rating, Ducksalad [3, 17]: 75 | Plant response rating, Ducksalad [3, 18]: 0 | Plant response rating, Barnyardgrass [4, 15]: 0 | Plant response rating, Barnyardgrass [4, 16]: 0 | Plant response rating, Barnyardgrass [4, 17]: 65 | Plant response rating, Barnyardgrass [4, 18]: 0 | Plant response rating, Cocklebur [5, 19]: 0 | Plant response rating, Cocklebur ([5]; 62 g ai/ha, scale 0 to 100): 0 | Cocklebur plant response rating ([5]; 8 g ai/ha, scale 0 to 100): 0 | Plant response rating, Crabgrass, Large [6, 19]: 100 | Plant response rating, Crabgrass, Large ([6]; 62 g ai/ha, scale 0 to 100): 100 | Crabgrass, Large plant response rating ([6]; 8 g ai/ha, scale 0 to 100): 20 | Crabgrass, Large plant response rating ([6]; 16 g ai/ha, scale 0 to 100): 98 | Plant response rating, Ryegrass, Italian [7, 20]: 90 | Plant response rating, Ryegrass, Italian ([7]; 62 g ai/ha, scale 0 to 100): 100 | Ryegrass, Italian plant response rating ([7]; 8 g ai/ha, scale 0 to 100): 60 | Ryegrass, Italian plant response rating ([7]; 16 g ai/ha, scale 0 to 100): 70 | Plant response rating, Goosegrass [8, 19]: 98 | Plant response rating, Goosegrass ([8]; 62 g ai/ha, scale 0 to 100): 100 | Goosegrass plant response rating ([8]; 8 g ai/ha, scale 0 to 100): 55 | Goosegrass plant response rating ([8]; 16 g ai/ha, scale 0 to 100): 90 | Bermudagrass plant response rating ([9]; 8 g ai/ha, scale 0 to 100 (0 no effect, 100 complete control)): 100 | Plant response rating, Bermudagrass ([9]; 16 g ai/ha, scale 0 to 100 (0 no effect, 100 complete control)): 100 | Plant response rating, Bermudagrass [9, 19]: 100 | Plant response rating, Bermudagrass ([9]; 62 g ai/ha, scale 0 to 100): 100 | Plant response rating, Lambsquarters [10, 19]: 0 | Plant response rating, Lambsquarters ([10]; 62 g ai/ha, scale 0 to 100): 0 | Lambsquarters plant response rating ([10]; 8 g ai/ha, scale 0 to 100): 0 | Lambsquarters plant response rating ([10]; 16 g ai/ha, scale 0 to 100): 0 | Plant response rating, Velvetleaf [11, 20]: 0 | Plant response rating, Velvetleaf ([11]; 62 g ai/ha, 0 to 100 scale, 0 no effect, 100 complete control): 0 | Velvetleaf plant response rating ([11]; 8 g ai/ha): 0 | Velvetleaf plant response rating ([11]; 16 g ai/ha): 0 | Plant response rating, Russian Thistle [12, 20]: 0 | Plant response rating, Russian Thistle ([12]; 62 g ai/ha, scale 0 to 100): 0 | Russian Thistle plant response rating ([12]; 8 g ai/ha, scale 0 to 100): 0 | Russian Thistle plant response rating ([12]; 16 g ai/ha, scale 0 to 100): 0 | Plant response rating, Soybean [13, 20]: 0 | Plant response rating, Soybean ([13]; 62 g ai/ha, scale 0 to 100): 0 | Soybean plant response rating ([13]; 8 g ai/ha, scale 0 to 100): 0 | Soybean plant response rating ([13]; 16 g ai/ha, scale 0 to 100): 0 | Plant response rating, Ragweed [14, 20]: 0 | Plant response rating, Ragweed ([14]; 62 g ai/ha, scale 0 to 100): 0 | Ragweed plant response rating ([14]; 8 g ai/ha, scale 0 to 100): 0 | Ragweed plant response rating ([14]; 16 g ai/ha, scale 0 to 100): 0
